{"source": "patent US10577400B2", "about": "“Method of manufacturing recombinant lectin protein and recombinant lectin protein manufactured by using the same” (NATIONAL MARINE BIODIVERSITY INSTITUTE OF KOREA, priority 2017, dated 2020)", "key": {"rD2BPL3": {"tested_on": "rD2BPL3", "assay": "Inhibition of hemagglutination activity of rD2BPL3 (refolded rBPL3) by sugars", "assay_type": "cell-based, Bryopsis plumosa", "details": "for Minimum inhibitory concentration: inhibition of hemagglutination activity of rD2BPL3; for Concentration at which hemagglutination activity of rBPL3 was inhibited: refolded rBPL3, FIG. 8, running text", "experimental": "FIG. 8 is a photograph showing that the activity of the refolded rBPL3 is inhibited by N-acetyl D-glucosamine and N-acetyl D-glactosamine. Referring to FIG. 8, experiments on inhibition of hemagglutination activity for 10 kinds of sugars including GlcNAc and GaINAc which inhibited hemagglutination activity of Native BPL3 were conducted."}, "Native BPL3": {"tested_on": "Native BPL3", "assay": "Inhibition of hemagglutination activity of Native BPL3 by sugars", "assay_type": "cell-based, Bryopsis plumosa"}, "Fetuin": {"biological_target": "Fetuin", "assay": "cell-based or functional assay"}, "[1]": {"assay": "Glycan binding specificity, RayBio Glycan Array 100", "experimental": "Affinity with glycans was measured using RayBio® Glycan Array 100. The rBPL3 and the Native BPL3 were conjugated with biotin and then dialyzed to remove unreacted biotin.\nFIG. 9 is a graph for comparing glycan binding specificities of Native BPL3, rD1BPL3, and rD2BPL3."}, "[2]": {"details": "biotin-conjugated lectin, FIG. 9"}}, "note": "Read-outs that look alike come from different tables or passages of the source. Marks after values point to notes of the source that are not given here.", "data": [{"molecule": "C[C@@H]1OC(O)[C@@H](O)[C@H](O)[C@@H]1O", "note": "(stereo partly drawn) [1-Fucose]", "values": [{"measurement": "Minimum inhibitory concentration", "setting": "rD2BPL3", "result": "NI (the absence of inhibition at 500 mM)"}, {"measurement": "Minimum inhibitory concentration", "setting": "Native BPL3", "result": "NI (the absence of inhibition at 500 mM)"}]}, {"molecule": "CC(=O)N[C@H]1C(O)O[C@H](CO)[C@H](O)[C@@H]1O", "note": "(stereo partly drawn) [N-acetyl-d-galactosamine]", "values": [{"measurement": "Minimum inhibitory concentration", "setting": "rD2BPL3", "result": 31.25, "unit": "mM"}, {"measurement": "Concentration at which hemagglutination activity of rBPL3 was inhibited", "setting": "rD2BPL3", "result": 62.5, "unit": "mM"}, {"measurement": "Minimum inhibitory concentration", "setting": "Native BPL3", "result": 62.5, "unit": "mM"}]}, {"molecule": "CC(=O)N[C@H]1C(O)O[C@H](CO)[C@@H](O)[C@@H]1O", "note": "(stereo partly drawn) [N-acetyl-d-glucosamine]", "values": [{"measurement": "Minimum inhibitory concentration", "setting": "rD2BPL3", "result": 62.5, "unit": "mM"}, {"measurement": "Concentration at which hemagglutination activity of rBPL3 was inhibited", "setting": "rD2BPL3", "result": 125, "unit": "mM"}, {"measurement": "Minimum inhibitory concentration", "setting": "Native BPL3", "result": 125, "unit": "mM"}]}, {"molecule": "O=C(CO)[C@@H](O)[C@H](O)[C@H](O)CO", "note": "[d-Fructose]", "values": [{"measurement": "Minimum inhibitory concentration", "setting": "rD2BPL3", "result": "NI (the absence of inhibition at 500 mM)"}, {"measurement": "Minimum inhibitory concentration", "setting": "Native BPL3", "result": "NI (the absence of inhibition at 500 mM)"}]}, {"molecule": "O=C[C@H](O)[C@@H](O)[C@@H](O)[C@H](O)CO", "note": "[d-Galactose]", "values": [{"measurement": "Minimum inhibitory concentration", "setting": "rD2BPL3", "result": "NI (the absence of inhibition at 500 mM)"}, {"measurement": "Minimum inhibitory concentration", "setting": "Native BPL3", "result": "NI (the absence of inhibition at 500 mM)"}]}, {"molecule": "O=C[C@H](O)[C@@H](O)[C@H](O)[C@H](O)CO", "note": "[d-Glucose]", "values": [{"measurement": "Minimum inhibitory concentration", "setting": "rD2BPL3", "result": "NI (the absence of inhibition at 500 mM)"}, {"measurement": "Minimum inhibitory concentration", "setting": "Native BPL3", "result": "NI (the absence of inhibition at 500 mM)"}]}, {"molecule": "OC[C@H]1O[C@H](O[C@H]2[C@H](O)[C@@H](O)[C@H](O)O[C@@H]2CO)[C@H](O)[C@@H](O)[C@@H]1O", "note": "[d-Maltose]", "values": [{"measurement": "Minimum inhibitory concentration", "setting": "rD2BPL3", "result": "NI (the absence of inhibition at 500 mM)"}, {"measurement": "Minimum inhibitory concentration", "setting": "Native BPL3", "result": "NI (the absence of inhibition at 500 mM)"}]}, {"molecule": "O=C[C@@H](O)[C@@H](O)[C@H](O)[C@H](O)CO", "note": "[d-Mannose]", "values": [{"measurement": "Minimum inhibitory concentration", "setting": "rD2BPL3", "result": "NI (the absence of inhibition at 500 mM)"}, {"measurement": "Minimum inhibitory concentration", "setting": "rD2BPL3; listed as α-Man", "result": "not inhibited"}, {"measurement": "Minimum inhibitory concentration", "setting": "Native BPL3", "result": "NI (the absence of inhibition at 500 mM)"}, {"measurement": "Minimum inhibitory concentration", "setting": "Native BPL3; listed as α-Man", "result": "not inhibited"}]}, {"molecule": "OC[C@H]1O[C@@H](O[C@H]2[C@H](O)[C@@H](O)[C@H](O)O[C@@H]2CO)[C@H](O)[C@@H](O)[C@H]1O", "note": "[β-Lactose]", "values": [{"measurement": "Minimum inhibitory concentration", "setting": "rD2BPL3", "result": "NI (the absence of inhibition at 500 mM)"}, {"measurement": "Minimum inhibitory concentration", "setting": "Native BPL3", "result": "NI (the absence of inhibition at 500 mM)"}]}, {"molecule": "Native BPL3 (Bryopsis plumosa lectin 3 derived from Bryopsis plumosa)", "values": [{"measurement": "Minimum inhibitory concentration (inhibition of hemagglutination activity)", "setting": "Fetuin", "result": 19.5, "unit": "µg/mL"}]}, {"molecule": "Native BPL3: BPL3 (Bryopsis plumosa lectin) derived from bryopsis plumosa, comparative target (protein, bryopsis plumose-derived BPL3 gene, BPL3 (Bryopsis plumosa lectin) derived from bryopsis plumosa, comparative target) TDVGSVQVRGLGDRSSCPVKPWTTAQTSAREKVVSVKFDIPYSSTPKVALSLSGMDMDTKYNTRINTSVENLTNEGFDLKVGVWCNTYAYMLDVTYVVVPAPYAAG", "values": [{"measurement": "Glycan giving a strong signal", "setting": "[1]; [2]", "result": "strong signal for a glycan of Gal-β-1,3-GaINAc-α-Sp"}, {"measurement": "Number of glycans reacted with, of 100 glycans", "setting": "[1]; [2]", "result": 5}, {"measurement": "Binding to α-Man-Sp", "setting": "[1]; glycan array", "result": "specifically bound"}, {"measurement": "Binding to β-GlcNAc-Sp", "setting": "[1]; glycan array", "result": "does not react"}]}, {"molecule": "rD2BPL3 (recombinant BPL3 lectin obtained by the gene having the repeating structure) (protein, part only; not given: spacer and vector tag, not shown: small tags and cut ends) chain, part: TDVGSVQVRGLGDRSSCPVKPWTTAQTSAREKVVSVKFDIPYSSTPKVALSLSGMDMDTKYNTRINTSVENLTNEGFDLKVGVWCNTYAYMLDVTYVVVPAPYAAGTDVGSVQVRGLGDRSSCPVKPWTTAQTSAREKVVSVKFDIPYSSTPKVALSLSGMDMDTKYNTRINTSVENLTNEGFDLKVGVWCNTYAYMLDVTYVVVPAPYAAG", "values": [{"measurement": "Minimum inhibitory concentration (inhibition of hemagglutination activity)", "setting": "Fetuin", "result": 4.88, "unit": "µg/mL"}]}, {"molecule": "Fetuin (protein, UniProt P12763 19-359, looked up) Alpha-2-HS-glycoprotein: IPLDPVAGYKEPACDDPDTEQAALAAVDYINKHLPRGYKHTLNQIDSVKVWPRRPTGEVYDIEIDTLETTCHVLDPTPLANCSVRQQTQHAVEGDCDIHVLKQDGQFSVLFTKCDSSPDSAEDVRKLCPDCPLLAPLNDSRVVHAVEVALATFNAESNGSYLQLVEISRAQFVPLPVSVSVEFAVAATDCIAKEVVDPTKCNLLAEKQYGFCKGSVIQKALGGEDVRVTCTLFQTQPVIPQPQPDGAEAEAPSAVPDAAGPTPSAAGPPVASVVVGPSVVAVPLPLHRAHYDLRHTFSGVASVESSSGEAFHVGKTPIVGQPSIPGGPVRLCPGRIRYFKI", "values": [{"measurement": "Minimum inhibitory concentration", "setting": "rD2BPL3; concentration in μg/mL", "result": "4.88^§ μg/mL"}, {"measurement": "Minimum inhibitory concentration", "setting": "Native BPL3; concentration in μg/mL", "result": "19.53^§ μg/mL"}]}]}
